Where two headings read alike, the source gives them in different places.
Columns and labels:
[1] = tested on: monkey kidney epithelial cell Vero; test: MTT assay on Vero cells
Excerpt: The anti-proliferative property of the complexes 1 and 2 at different concentrations on A549 lung carcinoma cell and monkey kidney epithelial cell Vero was examined by adopting MTT assay (Fig. S7). […] The naked cobalt acetate and ligands salen and salophen were separately tested on A549 cells to understand if metal chelation is the principal basis of the anticancer activity of the complexes.
Culture: Human lung cancer cells (A549) were received from National Centre for Cell Science (NCCS) Pune, India. Vero cells were obtained from ATCC. The cells were grown at humidified atmosphere of 5% CO2 in an incubator at 37 °C (Forma, Thermo Scientific, USA) in DMEM medium (Invitrogen) containing 10% FBS (Sigma-Aldrich, St. Louis, Mo, USA), 100 μg/mL of penicillin and 100 μg/mL streptomycin were used as antibiotics (Himedia, Mumbai, India). […] The cells were seeded in 96 well plates (5000 A549 cells per well) and allowed to attach for 24 h. The cells were then incubated with different concentrations of the metal complexes 1 and 2 dissolved in 100% dimethyl sulfoxide (DMSO) (Sigma-Aldrich) and prepared to a final dilution of 0.02% of DMSO.
In the determination of IC50 value, 0.02% DMSO was used as the solvent control. After the end of incubation period (24 h), the medium was aspirated carefully and replaced with new medium. The formazan formed was dissolved in100 μL of 100% DMSO to each well. […]

A549 cells = test: Cell cycle analysis by flow cytometry; format: cell-based, Human; conditions: A549, IC50 concentrations, 24 h, propidium iodide, compared to control
Procedure: The possible cell cycle arrest was determined by flow cytometer which is used to distinguish and quantify the cells in different phases of the cell cycle. The cells were treated with the complexes 1 and 2 at the respective half maximal inhibitory concentrations. The cells were fixed, stained with propidium iodide and analysed for DNA/cell content as aspects of cell cycle distribution. The DNA histograms and the percentage of cells in each of the phases are given Fig. 5. […] The increase of cell accumulation in sub G0 - G1 phase indicated delay in progression of cell cycle. The cells thus inhibited in division end up in the apoptosis due to sub G0 − G1 check point arrest. […] In as much as apoptosis itself could be induced due to the DNA damage, necrosis is a clear indication of damage caused by the complexes to the cytosol.
Cell cycle analysis: Cell phase distribution was determined by flow cytometry with DNA staining to reveal the total amount of DNA[94]. […] After incubation, the cells were trypsinized, harvested, fixed in 1 mL 80% cold ethanol and incubated at 4 °C for 15 min. […] Cell cycle distribution was analyzed using FACS (fluorescent activated cell sorter) (Becton-Dickinson, Sanjose, CA, USA) with 15 mW, 488 nm argon ion laser. […] The data were acquired and analyzed using Dean-Jett-Fox algorithm.

SMILES	concentration up to which no significant toxicity ([1]; Vero cells, MTT) [µM]	effect on cell cycle distribution (A549 cells)	concentration up to which no significant toxicity [1] [µM]
CCCCCCCCCCCC[NH2+][Co-3]123([NH2+]CCCCCCCCCCCC)[O]c4ccccc4C=[N+]1c1ccccc1[N+]2=Cc1ccccc1[O]3.[O-][Cl+3]([O-])([O-])[O-] [Complex 2, trans-[Co(salophen)(DA)2](ClO4)]	> 150	gradual increase in sub G0 − G1 and G2 − M phases	–
CCCCCCCCCCCC[NH2+][Co-3]123([NH2+]CCCCCCCCCCCC)[O]c4ccccc4C=[N+]1CC[N+]2=Cc1ccccc1[O]3.[O-][Cl+3]([O-])([O-])[O-] [Complex 1, trans-[Co(salen)(DA)2](ClO4)]	–	gradual increase in sub G0 − G1 and G2 − M phases	> 150

From PMC6389928, “Biomolecular Interaction, Anti-Cancer and Anti-Angiogenic Properties of Cobalt(III) Schiff Base Complexes” (Scientific Reports, 2019)
